Test systems include OVCAR-4; U-251; IGROV-1; TK-10; MOLT-4; SF-539; OVCAR-3; RXF 393; SR; SNB-75; OVCAR-5; UACC-62; UACC-257; HCT-15; SK-MEL-2; HCC 2998; MDA-MB-231; HCT-116; SF-295; NCI-H226.
Assay in all cases: NCI tumour cell line growth inhibition, 48 h

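Five compound concentrations were applied to cells in 96-well plates for 48 hours; endpoints were derived by simple linear interpolation of the resulting dose-response curve. Abbreviation: GI50, concentration required for 50% inhibition of growth.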 Active and inactive are the calls of the source. Cut-off read from the data, not from the text of the source: active = GI50 up to about 1.1 µM and inactive = higher.

Turning to `C[C@H](CCC(=O)O)[C@H]1CC[C@H]2[C@@H]3[C@@H](O)C[C@@H]4C[C@H](O)CC[C@]4(C)[C@H]3CC[C@]12C`, the GI50 with OVCAR-4 is > 100 µM (inactive); in the test with U-251, 58.6 µM (inactive); in the test with IGROV-1 it was > 100 µM (inactive); with TK-10, 99.3 µM (inactive); in the test on MOLT-4, 89.7 µM (inactive); in the test on SF-539, > 100 µM (inactive). In addition, the GI50 with OVCAR-3 is 60.8 µM (inactive); in the test on RXF 393, > 100 µM (inactive); in the test on SR, 47.8 µM (inactive); with SNB-75, > 100 µM (inactive); in the test on OVCAR-5 it was > 100 µM (inactive); in the test with UACC-62, 76.2 µM (inactive). The GI50 with UACC-257 was 92.9 µM (inactive); in the test on HCT-15, 67.3 µM; in the test on SK-MEL-2, > 100 µM (inactive); with HCC 2998, > 100 µM (inactive); in the test with MDA-MB-231, > 100 µM (inactive); in the test with HCT-116, 61.7 µM (inactive). Further, the GI50 in the test with SF-295 was 53.6 µM (inactive); with NCI-H226 it was > 100 µM (inactive).

With `COC(=O)C1=C(C(=O)OC)C(C(=O)OC)C(C(=O)OC)C(C(=O)OC)(C(=O)OC)C(C(=O)OC)=C1C(=O)OC` (stereo not given), the GI50 in the test with OVCAR-4 is 22.8 µM (inactive); in the test with U-251, 16.9 µM (inactive); with IGROV-1, 18.1 µM (inactive); with TK-10 it was 15.6 µM (inactive); with MOLT-4, 2.59 µM (inactive); in the test with SF-539, 17.7 µM (inactive). The GI50 in the test with OVCAR-3 was 15.1 µM (inactive); in the test on RXF 393, 7.43 µM (inactive); with SR, 0.285 µM (active); in the test with SNB-75, 19.2 µM (inactive); in the test with OVCAR-5, 19.3 µM (inactive); with UACC-62, 15.5 µM (inactive). The GI50 is 13.9 µM (inactive) in the test with UACC-257; 8.39 µM in the test on HCT-15; 17.9 µM (inactive) in the test on SK-MEL-2; 16.9 µM (inactive) in the test on HCC 2998; 20.9 µM (inactive) in the test with MDA-MB-231; 7.36 µM (inactive) in the test with HCT-116. Also, the GI50 in the test with SF-295 was 19.2 µM (inactive); with NCI-H226, 15.9 µM (inactive).

As to `COc1ccc(C(=O)/C=C/c2ccc(OCC(=O)N3CCN(c4ccccc4)CC3)cc2)cc1`, the GI50 with OVCAR-4 was 46.9 µM (inactive); in the test with U-251 it was 28.4 µM (inactive); in the test on IGROV-1, 34 µM (inactive); with TK-10 it was 44.7 µM (inactive); with MOLT-4, > 26.7 µM (inactive); in the test with SF-539 it was 18.9 µM (inactive). The GI50 with OVCAR-3 is 74.3 µM (inactive); in the test with RXF 393 it was 26.1 µM (inactive); in the test on SR, 18.6 µM (inactive); with SNB-75, 23.7 µM (inactive); in the test on OVCAR-5 it was > 100 µM (inactive); with UACC-62, 75.2 µM (inactive). Besides, the GI50 in the test with UACC-257 is > 100 µM (inactive); with HCT-15, 54.7 µM; with SK-MEL-2, 45.4 µM (inactive); with HCC 2998, > 100 µM (inactive); with MDA-MB-231 it was > 27.3 µM (inactive); in the test on HCT-116, 64.6 µM (inactive). Also, the values for the GI50 with SF-295 and with NCI-H226 were 32.6 µM (inactive) and > 83 µM (inactive), respectively.

Take `CCOC(=O)C(NCc1ccc2c(c1)OCO2)(NC(=O)c1ccccc1)C(F)(F)F` (stereo not given): the GI50 is 76.7 µM (inactive) with OVCAR-4; > 100 µM (inactive) with U-251; > 100 µM (inactive) with IGROV-1; > 100 µM (inactive) with TK-10; 18 µM (inactive) in the test on MOLT-4; > 100 µM (inactive) with SF-539. Moreover, the GI50 in the test on OVCAR-3 is > 100 µM (inactive); in the test on RXF 393, > 100 µM (inactive); in the test on SR it was 36 µM (inactive); in the test on SNB-75, > 100 µM (inactive); with OVCAR-5 it was > 100 µM (inactive); with UACC-62, > 100 µM (inactive). Besides, the GI50 in the test on UACC-257 was > 100 µM (inactive); in the test on HCT-15, more than 100 µM; with SK-MEL-2 it was > 100 µM (inactive); with HCC 2998, > 100 µM (inactive); in the test on MDA-MB-231, 64.4 µM (inactive); in the test with HCT-116, 89.1 µM (inactive). The GI50 in the test with SF-295 and in the test with NCI-H226 was > 100 µM (inactive) each time.

For `Cc1ccc(Nc2c(C#N)[n+]([O-])c3cc(Cl)ccc3[n+]2[O-])cc1`, the GI50 in the test on OVCAR-4 was 24.1 µM (inactive); in the test with U-251, 29.3 µM (inactive); in the test with IGROV-1, 15.5 µM (inactive); in the test with TK-10, 29 µM (inactive); in the test on MOLT-4, 4.8 µM (inactive); in the test on SF-539 it was 26.6 µM (inactive). Further, the GI50 is 4.13 µM (inactive) with OVCAR-3; > 22.1 µM (inactive) in the test on RXF 393; 7.98 µM (inactive) in the test with SR; 39.5 µM (inactive) in the test with SNB-75; > 100 µM (inactive) with OVCAR-5; 20.7 µM (inactive) in the test with UACC-62. The GI50 in the test on UACC-257 was > 76.7 µM (inactive); in the test on HCT-15, 5.15 µM; in the test on SK-MEL-2, > 100 µM (inactive); in the test with HCC 2998, 21.8 µM (inactive); in the test with MDA-MB-231, > 100 µM (inactive); in the test on HCT-116 it was 8.79 µM (inactive). Besides, the GI50 was 13.6 µM (inactive) with SF-295 and 28.2 µM (inactive) in the test on NCI-H226.

Turning to `CCNC(=S)N/N=C(/C)c1cccc(/C(C)=N\NC(=S)NCC)n1`, the GI50 was 2.14 µM (inactive) in the test on OVCAR-4; 0.553 µM (active) in the test with U-251; 1.24 µM (inactive) in the test with IGROV-1; 0.771 µM (active) with TK-10; 0.365 µM (active) with MOLT-4; 1.27 µM (inactive) in the test on SF-539. In addition, the GI50 in the test with OVCAR-3 is 0.366 µM (active); in the test on RXF 393, 3.44 µM (inactive); with SR, 0.184 µM (active); in the test on SNB-75 it was 14.9 µM (inactive); in the test on OVCAR-5, 0.873 µM (active); with UACC-62, 1.09 µM (active). Moreover, the GI50 in the test on UACC-257 is 4.16 µM (inactive); with HCT-15 it was 0.493 µM; in the test with SK-MEL-2, 3.9 µM (inactive); in the test on HCC 2998 it was 3.56 µM (inactive); with MDA-MB-231, 2.32 µM (inactive); with HCT-116, 0.367 µM (active). Further, the figures for the GI50 in the test on SF-295 and in the test on NCI-H226 were 0.488 µM (active) and 0.333 µM (active), respectively.

`COc1cc(/C=C2\C(=O)N(c3cccc(NC(C)=O)c3)C(c3ccccc3)S2(=O)=O)cc(OC)c1OC` (stereo not given): the GI50 was 70.5 µM (inactive) with OVCAR-4; 59.8 µM (inactive) with U-251; > 100 µM (inactive) in the test on IGROV-1; > 100 µM (inactive) in the test with TK-10; 19.8 µM (inactive) in the test with MOLT-4; 48.3 µM (inactive) in the test with SF-539. Besides, the GI50 with OVCAR-3 was 56 µM (inactive); with RXF 393, > 100 µM (inactive); in the test with SR, 24.9 µM (inactive); in the test with SNB-75, 62.7 µM (inactive); in the test with OVCAR-5, > 100 µM (inactive); in the test on UACC-62, 80.9 µM (inactive). The GI50 in the test on UACC-257 is > 100 µM (inactive); in the test on HCT-15, 71.4 µM; in the test on SK-MEL-2, > 100 µM (inactive); in the test on HCC 2998, > 100 µM (inactive); with MDA-MB-231 it was > 100 µM (inactive); in the test on HCT-116, 37.8 µM (inactive). Further, the GI50 in the test with SF-295 was 50.9 µM (inactive); in the test on NCI-H226, 67.6 µM (inactive).

Regarding `Cc1c2oc3c(C)cnc(C(=O)NC4C(=O)NC(C(C)C)C(=O)N5CCCC5C(=O)N(C)CC(=O)N(C)C(C(C)C)C(=O)OC4C)c3nc-2c(C(=O)NC2C(=O)NC(C(C)C)C(=O)N3CCCC3C(=O)N(C)CC(=O)N(C)C(C(C)C)C(=O)OC2C)c(N)c1=O` (stereo not given), the GI50 was 10.8 µM (inactive) in the test on OVCAR-4; 0.931 µM (active) in the test on U-251; 0.687 µM (active) in the test on IGROV-1; 22.9 µM (inactive) in the test on TK-10; 0.138 µM (active) with MOLT-4; 1.42 µM (inactive) with SF-539. The GI50 in the test with OVCAR-3 is 10.4 µM (inactive); in the test with RXF 393, 1.12 µM (active); in the test with SR, 0.575 µM (active); in the test with SNB-75, 6.41 µM (inactive); in the test on OVCAR-5, 13.2 µM (inactive); with UACC-62, 1.32 µM (inactive). Besides, the GI50 with UACC-257 was 4.58 µM (inactive); with HCT-15, 21 µM; in the test on SK-MEL-2, 0.431 µM (active); in the test on HCC 2998 it was 2.67 µM (inactive); in the test on MDA-MB-231, 9.77 µM (inactive); in the test with HCT-116, 0.396 µM (active). For the same molecule, the GI50 in the test with SF-295 was 5.45 µM (inactive); in the test on NCI-H226, 2.65 µM (inactive).

Turning to `O=C1Cc2cn[nH]c2-c2ccccc2N1`, the GI50 is 30.3 µM (inactive) in the test on OVCAR-4; 23.6 µM (inactive) with U-251; 39.2 µM (inactive) in the test with IGROV-1; 30.2 µM (inactive) in the test with TK-10; 20.1 µM (inactive) in the test on MOLT-4; 38.8 µM (inactive) with SF-539. The GI50 was 16.1 µM (inactive) in the test with OVCAR-3; 28.2 µM (inactive) in the test with RXF 393; 21.7 µM (inactive) in the test with SR; 79.3 µM (inactive) in the test with SNB-75; 30.3 µM (inactive) with OVCAR-5; 22.9 µM (inactive) with UACC-62. Further, the GI50 in the test with UACC-257 was 23.5 µM (inactive); in the test on HCT-15, 23.8 µM; in the test on SK-MEL-2, 26.9 µM (inactive); with HCC 2998 it was 26.2 µM (inactive); with MDA-MB-231 it was > 45.5 µM (inactive); in the test with HCT-116, 26.5 µM (inactive). The values for the GI50 with SF-295 and with NCI-H226 were 61 µM (inactive) and > 75.9 µM (inactive), respectively.

For `CN(C)CCOc1ccc2[nH]c(C(=O)N3CC(CCl)c4c3cc(NC(=O)OCc3ccc([N+](=O)[O-])cc3)c3ccccc43)cc2c1` (stereo not given), the GI50 is 1.99 µM (inactive) in the test on OVCAR-4; 1.36 µM (inactive) in the test on U-251; 1.45 µM (inactive) with IGROV-1; 14.2 µM (inactive) with TK-10; 0.538 µM (active) in the test with MOLT-4; 1.69 µM (inactive) in the test with SF-539. The GI50 was 1.63 µM (inactive) in the test on OVCAR-3; 1.51 µM (inactive) with RXF 393; 0.533 µM (active) with SR; 1.63 µM (inactive) in the test on SNB-75; 1.6 µM (inactive) in the test on OVCAR-5; 1.83 µM (inactive) in the test on UACC-62. Further, the GI50 in the test on UACC-257 is 14.6 µM (inactive); in the test on HCT-15 it was 1.55 µM; with SK-MEL-2 it was 2.14 µM (inactive); in the test on HCC 2998 it was 8.15 µM (inactive); with MDA-MB-231 it was 2.14 µM (inactive); in the test on HCT-116, 0.794 µM (active). In addition, the GI50 in the test on SF-295 was 1.6 µM (inactive); with NCI-H226 it was 1.67 µM (inactive).

Source of the values: ChEMBL document CHEMBL1201862, “PubChem BioAssay data set” (2004).
